ChEMBL document CHEMBL5665443, “Enzyme Inhibitor Single Concentration assay results for EUbOPEN Chemogenomics Library” (2024)
Where a SMILES comes first, the peptide text is derived from it. [ ]: non-standard residue; d: D form. Arg(Me) = CNC(=N)NCCC[C@H](N)C(=O)O; d3Pal = N[C@H](Cc1cccnc1)C(=O)O; azaGly = NNC(=O)O

Experiments:
[1] = biological target: T1, Endonuclease III-like protein 1 (Homo sapiens) (UniProt P78549);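 note: enzyme assay tracking NTHL1 cutting and release of a quenched double-stranded DNA oligo substrate, read as fluorescence at 594 nm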
T1 sequence (whole entry): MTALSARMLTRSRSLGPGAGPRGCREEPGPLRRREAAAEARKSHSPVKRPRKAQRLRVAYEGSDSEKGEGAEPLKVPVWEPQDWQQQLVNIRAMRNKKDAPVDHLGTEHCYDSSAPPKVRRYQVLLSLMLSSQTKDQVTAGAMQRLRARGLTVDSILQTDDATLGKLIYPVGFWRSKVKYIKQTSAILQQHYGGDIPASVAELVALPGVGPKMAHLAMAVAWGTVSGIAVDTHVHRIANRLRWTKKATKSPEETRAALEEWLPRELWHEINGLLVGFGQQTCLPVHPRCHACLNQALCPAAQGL
Description: Inhibition of NTHL1 by quantifying inhibition of NTHL1-mediated cleavage and dissociation of quenched duplex DNA oligonucleotides, measured as fluorescence at 594 nm.

[2] = biological target: Uracil-DNA glycosylase (Homo sapiens) (UniProt P13051); conditions: Hit No;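 note: UNG excision on a quenched double-stranded DNA oligo probe, with APE1 added for strand incision and turnover, read as fluorescence at 594 nm as strands separate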
Description: Inhibition of UNG by quantifying inhibition of UNG-mediated cleavage and dissociation of quenched duplex DNA oligonucleotides, measured as fluorescence at 594 nm. To generate a functional strand incision and increase turn-over this assay is coupled to APE1.

[3] = biological target: N-glycosylase/DNA lyase (Homo sapiens) (UniProt O15527); conditions: Hit No;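 note: OGG1 cleavage of a quenched duplex DNA oligonucleotide, coupled to APE1 for strand incision, read as fluorescence at 594 nm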
Description: Inhibition of OGG1 by quantifying inhibition of OGG1-mediated cleavage and dissociation of quenched duplex DNA oligonucleotides, measured as fluorescence at 594 nm. To generate a functional strand incision and increase turn-over this assay is coupled to APE1.

[4] = biological target: T2, Adenine DNA glycosylase (Homo sapiens) (UniProt Q9UIF7); conditions: Compound Concentration 10.0 uM, Hit No;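 note: human MUTYH activity read as 594 nm fluorescence from cleavage and release of a quenched DNA duplex, coupled with APE1 for strand incision, lower signal meaning inhibition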
T2 sequence (whole entry): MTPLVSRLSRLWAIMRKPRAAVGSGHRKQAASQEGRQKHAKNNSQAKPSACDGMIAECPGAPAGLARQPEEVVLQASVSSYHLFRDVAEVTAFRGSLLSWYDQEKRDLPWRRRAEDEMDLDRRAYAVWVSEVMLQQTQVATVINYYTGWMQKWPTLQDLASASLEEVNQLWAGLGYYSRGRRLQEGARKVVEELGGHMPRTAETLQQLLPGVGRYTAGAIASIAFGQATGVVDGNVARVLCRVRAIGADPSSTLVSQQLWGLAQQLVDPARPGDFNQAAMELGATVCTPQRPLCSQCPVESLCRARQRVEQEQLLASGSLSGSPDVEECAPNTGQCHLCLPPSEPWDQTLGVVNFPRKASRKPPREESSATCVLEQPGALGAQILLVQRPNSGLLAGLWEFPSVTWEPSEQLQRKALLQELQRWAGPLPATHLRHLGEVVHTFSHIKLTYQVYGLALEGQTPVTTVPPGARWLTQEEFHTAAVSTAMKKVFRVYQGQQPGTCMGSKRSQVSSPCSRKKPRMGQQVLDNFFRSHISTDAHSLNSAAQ
Description: Inhibition of MUTYH by quantifying inhibition of MUTYH-mediated cleavage and dissociation of quenched duplex DNA oligonucleotides, measured as fluorescence at 594 nm. To generate a functional strand incision and increase turn-over this assay is coupled to APE1.

[5] = biological target: G/T mismatch-specific thymine DNA glycosylase (Homo sapiens) (UniProt Q13569); conditions: Hit No;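 note: human TDG cleavage of quenched duplex DNA oligonucleotides coupled to APE1, strand release read as fluorescence at 594 nm, inhibition of TDG activity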
Description: Inhibition of TDG by quantifying inhibition of TDG-mediated cleavage and dissociation of quenched duplex DNA oligonucleotides, measured as fluorescence at 594 nm. To generate a functional strand incision and increase turn-over this assay is coupled to APE1.

[6] = biological target: T3, Single-strand selective monofunctional uracil DNA glycosylase (Homo sapiens) (UniProt Q53HV7); conditions: Hit No;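 note: enzymatic SMUG1 assay coupled with APE1, reading fluorescence at 594 nm released when a quenched double-stranded DNA oligonucleotide substrate is cleaved and separated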
T3 sequence (whole entry): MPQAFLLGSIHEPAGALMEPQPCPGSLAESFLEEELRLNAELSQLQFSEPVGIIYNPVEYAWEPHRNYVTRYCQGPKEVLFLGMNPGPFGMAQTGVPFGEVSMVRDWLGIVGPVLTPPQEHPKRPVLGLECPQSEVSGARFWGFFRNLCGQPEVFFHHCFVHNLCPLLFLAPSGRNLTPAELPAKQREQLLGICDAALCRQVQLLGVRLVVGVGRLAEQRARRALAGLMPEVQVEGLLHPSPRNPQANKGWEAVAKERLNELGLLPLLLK
Description: Inhibition of SMUG1 by quantifying inhibition of SMUG1-mediated cleavage and dissociation of quenched duplex DNA oligonucleotides, measured as fluorescence at 594 nm. To generate a functional strand incision and increase turn-over this assay is coupled to APE1.

[7] = biological target: Endonuclease 8-like 1 (Homo sapiens) (UniProt Q96FI4); conditions: Hit No;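 note: fluorescence at 594 nm from quenched duplex DNA oligonucleotides released by NEIL1 cleavage and strand separation, reported as reduction of this enzyme activity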
Description: Inhibition of NEIL1 by quantifying inhibition of NEIL1-mediated cleavage and dissociation of quenched duplex DNA oligonucleotides, measured as fluorescence at 594 nm.

[8] = biological target: Methyl-CpG-binding domain protein 4 (Homo sapiens) (UniProt O95243); conditions: Hit No;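 note: MBD4 activity read as fluorescence at 594 nm from cleavage and release of a quenched duplex DNA oligonucleotide, with APE1 coupled to incise the strand and raise turnover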
Description: Inhibition of MBD4 by quantifying inhibition of MBD4-mediated cleavage and dissociation of quenched duplex DNA oligonucleotides, measured as fluorescence at 594 nm. To generate a functional strand incision and increase turn-over this assay is coupled to APE1.

[9] = biological target: T4, Endonuclease 8-like 2 (Homo sapiens) (UniProt Q969S2);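 note: fluorescence at 594 nm reports NEIL2 cutting and release of a quenched double-stranded DNA oligo substrate, reduced signal read as inhibition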
T4 sequence (whole entry): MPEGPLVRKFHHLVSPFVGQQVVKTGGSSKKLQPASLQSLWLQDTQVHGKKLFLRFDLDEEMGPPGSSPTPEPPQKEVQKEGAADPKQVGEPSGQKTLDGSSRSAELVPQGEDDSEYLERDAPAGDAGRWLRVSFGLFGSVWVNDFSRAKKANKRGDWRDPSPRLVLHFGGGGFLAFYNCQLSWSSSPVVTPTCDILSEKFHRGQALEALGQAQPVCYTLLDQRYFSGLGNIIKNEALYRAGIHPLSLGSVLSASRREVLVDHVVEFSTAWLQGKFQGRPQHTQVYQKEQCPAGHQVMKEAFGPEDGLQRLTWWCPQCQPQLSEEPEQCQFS
Description: Inhibition of NEIL2 by quantifying inhibition of NEIL2-mediated cleavage and dissociation of quenched duplex DNA oligonucleotides, measured as fluorescence at 594 nm.

[10] = Compound Concentration 10.0 uM, Hit No
[11] = Compound Concentration 1.0 uM, Hit No
[12] = Compound Concentration 10.0 uM, Hit Yes

Chain of Methyl-CpG-binding domain protein 4 (Homo sapiens) (O95243 whole entry, the tested form may be a part): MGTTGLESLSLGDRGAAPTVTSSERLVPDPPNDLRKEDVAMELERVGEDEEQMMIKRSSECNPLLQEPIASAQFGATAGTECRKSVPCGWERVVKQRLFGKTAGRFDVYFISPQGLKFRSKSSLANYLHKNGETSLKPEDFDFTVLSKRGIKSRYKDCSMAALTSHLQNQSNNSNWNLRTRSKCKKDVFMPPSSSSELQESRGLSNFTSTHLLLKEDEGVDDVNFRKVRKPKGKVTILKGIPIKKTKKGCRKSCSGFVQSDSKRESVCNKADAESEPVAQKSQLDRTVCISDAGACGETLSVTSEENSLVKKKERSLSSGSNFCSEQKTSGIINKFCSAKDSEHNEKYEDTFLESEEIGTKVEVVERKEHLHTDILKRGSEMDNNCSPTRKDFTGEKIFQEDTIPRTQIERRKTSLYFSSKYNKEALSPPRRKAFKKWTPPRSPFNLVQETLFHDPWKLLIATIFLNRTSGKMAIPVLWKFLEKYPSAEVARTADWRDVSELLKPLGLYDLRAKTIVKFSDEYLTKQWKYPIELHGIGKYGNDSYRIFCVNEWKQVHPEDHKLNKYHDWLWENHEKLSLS
Chain of G/T mismatch-specific thymine DNA glycosylase (Homo sapiens) (Q13569 whole entry): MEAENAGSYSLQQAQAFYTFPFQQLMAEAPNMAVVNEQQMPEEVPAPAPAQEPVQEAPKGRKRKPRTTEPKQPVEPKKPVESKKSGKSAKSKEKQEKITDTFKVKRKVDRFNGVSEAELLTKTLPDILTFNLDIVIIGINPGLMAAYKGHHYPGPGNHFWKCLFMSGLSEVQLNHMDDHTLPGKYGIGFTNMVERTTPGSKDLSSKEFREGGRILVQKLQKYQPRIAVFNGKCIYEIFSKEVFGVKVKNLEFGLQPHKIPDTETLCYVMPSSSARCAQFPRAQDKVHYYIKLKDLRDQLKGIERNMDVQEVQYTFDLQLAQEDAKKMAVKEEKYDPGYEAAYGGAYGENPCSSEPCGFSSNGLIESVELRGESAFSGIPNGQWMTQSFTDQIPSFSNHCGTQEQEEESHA
Chain of Endonuclease 8-like 1 (Homo sapiens) (Q96FI4 whole entry, the tested form may be a part): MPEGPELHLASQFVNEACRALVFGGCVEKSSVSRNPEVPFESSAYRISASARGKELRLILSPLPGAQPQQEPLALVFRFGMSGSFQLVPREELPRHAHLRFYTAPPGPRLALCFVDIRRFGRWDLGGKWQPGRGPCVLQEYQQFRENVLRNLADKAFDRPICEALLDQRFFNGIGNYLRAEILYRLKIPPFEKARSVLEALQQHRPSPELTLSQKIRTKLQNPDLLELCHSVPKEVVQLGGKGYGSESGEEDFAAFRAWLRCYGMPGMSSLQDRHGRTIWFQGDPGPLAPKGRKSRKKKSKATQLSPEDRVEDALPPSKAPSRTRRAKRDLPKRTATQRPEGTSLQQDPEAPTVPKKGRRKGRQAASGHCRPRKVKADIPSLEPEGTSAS
Chain of N-glycosylase/DNA lyase (Homo sapiens) (O15527 whole entry): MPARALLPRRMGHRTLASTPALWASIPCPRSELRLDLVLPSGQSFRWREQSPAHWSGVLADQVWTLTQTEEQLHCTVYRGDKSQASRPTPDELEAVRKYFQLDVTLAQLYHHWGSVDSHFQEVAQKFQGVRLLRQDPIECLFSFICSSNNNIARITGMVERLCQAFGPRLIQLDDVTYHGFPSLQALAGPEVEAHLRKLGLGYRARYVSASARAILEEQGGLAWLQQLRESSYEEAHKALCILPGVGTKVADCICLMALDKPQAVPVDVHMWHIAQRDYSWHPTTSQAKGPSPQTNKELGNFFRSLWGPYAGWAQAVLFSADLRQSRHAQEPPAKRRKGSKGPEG
Chain of Uracil-DNA glycosylase (Homo sapiens) (P13051 whole entry): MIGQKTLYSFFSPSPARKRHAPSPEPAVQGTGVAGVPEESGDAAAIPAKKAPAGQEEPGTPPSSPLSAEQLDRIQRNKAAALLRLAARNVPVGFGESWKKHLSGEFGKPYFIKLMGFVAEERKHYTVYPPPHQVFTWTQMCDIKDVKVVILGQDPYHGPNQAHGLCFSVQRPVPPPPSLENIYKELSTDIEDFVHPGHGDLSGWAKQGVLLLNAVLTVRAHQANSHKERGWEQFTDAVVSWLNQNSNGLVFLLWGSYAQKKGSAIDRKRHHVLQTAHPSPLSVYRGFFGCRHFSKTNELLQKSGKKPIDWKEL

inhibition [1, 10] [%] | inhibition ([2]; Compound Concentration 10.0 uM) [%] | inhibition ([3]; Compound Concentration 10.0 uM) [%] | inhibition [4] [%] | inhibition ([5]; Compound Concentration 10.0 uM) [%] | inhibition ([6]; Compound Concentration 10.0 uM) [%] | inhibition ([7]; Compound Concentration 10.0 uM) [%] | inhibition ([8]; Compound Concentration 10.0 uM) [%] | inhibition [9, 10] [%] | inhibition ([2]; Compound Concentration 1.0 uM) [%] | inhibition ([3]; Compound Concentration 1.0 uM) [%] | inhibition ([5]; Compound Concentration 1.0 uM) [%] | inhibition ([6]; Compound Concentration 1.0 uM) [%] | inhibition ([7]; Compound Concentration 1.0 uM) [%] | inhibition ([8]; Compound Concentration 1.0 uM) [%] | inhibition [9, 11] [%] | inhibition [1, 11] [%] | inhibition [1, 12] [%] | inhibition [9, 12] [%] | Structure (SMILES)
5.22 | 6.04 | 43.2 | 34.2 | 51.7 | 12 | 1.86 | 59.4 | -0.764 | – | – | – | – | – | – | – | – | – | – | CC[C@H](Nc1c(C#N)c(-c2ccc(-c3cccc(C)c3F)cc2)nc2cnccc12)C(=O)O
-7.86 | 3.52 | 4.66 | 9.35 | 100 | 23.4 | 2.28 | 16.6 | -7.12 | -2.6 | -7.84 | 43.6 | 10.4 | 3.44 | 13.6 | -4.88 | – | – | – | CNC(=O)c1ccc(Nc2ncc(C(F)(F)F)c(NCc3nccnc3N(C)S(C)(=O)=O)n2)cc1
-1.29 | 4.08 | 8 | 1.43 | 53.1 | 12.2 | -7.41 | 53.9 | -0.489 | – | – | – | – | – | – | – | – | – | – | Fc1ccc(-c2c3cccc(C(F)(F)F)c3nn2Cc2ccc(F)cc2Cl)cc1
-1.95 | 5.72 | 18.3 | 4.92 | 46.7 | 27.6 | -3.02 | 66.8 | 3.08 | – | – | – | – | – | – | – | – | – | – | CC(C)OC(=O)C1=CN(C(=O)c2ccc(F)c(F)c2)CC(C)(C)c2c1[nH]c1ccccc21
– | 2.87 | 4.46 | -2.18 | 97.1 | 13 | -6.35 | 57 | 3.85 | 0.477 | – | 39 | 10.9 | -4.09 | 54.1 | – | -4.79 | – | – | COc1ccccc1Nc1nc(-c2nn(Cc3c(F)cc(OCCCO)cc3F)c3ccccc23)ncc1OC
0.775 | 8.79 | -9.94 | -4.85 | 39.4 | 11.5 | -0.672 | 32.4 | 4.92 | – | – | – | – | – | – | – | – | – | – | O=C1c2ccc(Nc3ccc(F)cc3F)cc2CCc2ccc(OC[C@H](O)CO)cc21
17.8 | -0.945 | 62.7 | 14.6 | 98.5 | 18.5 | -2.11 | 60 | 1.55 | – | – | – | – | – | – | – | – | – | – | Cc1cc(SCc2sc(-c3ccc(C(F)(F)F)cc3)nc2C)ccc1OCC(=O)O
-5.21 | 3.51 | -8.02 | 5.24 | 3.38 | 5.69 | 3.27 | -1.37 | 3.98 | – | – | – | – | – | – | – | – | – | – | CCNC(=O)N1CCCN(c2ccc(C(=O)NCCc3ccc(Cl)cc3Cl)cc2NC(=O)c2cccc(Cl)c2)CC1
7.92 | 1.18 | -6.61 | -6.77 | 40.4 | 6.53 | 3.04 | 53.6 | 5.89 | – | – | – | – | – | – | – | – | – | – | N#CN1CC[C@H](C(=O)Nc2nc3c(s2)CN(C(=O)CN=[N+]=[N-])CC3)C1
10.6 | 4.52 | 67.8 | 11.9 | 99.3 | 17.7 | -9.38 | 61.7 | -1.76 | – | – | – | – | – | – | – | – | – | – | O=C(O)c1cc(F)c2nc(N3[C@@H]4CC[C@H]3C[C@@H](OCc3c(-c5ccccc5OC(F)(F)F)noc3C3CC3)C4)sc2c1
0.685 | 7.1 | 9.57 | -0.706 | 62.4 | 25.5 | -0.139 | 60.6 | -2.53 | – | – | – | – | – | – | – | – | – | – | CNC(=N)NCCC[C@H](NC(=O)[C@H](CC(C)C)NC(=O)NNC(=O)[C@H](Cc1ccccc1)NC(=O)[C@H](CO)NC(=O)[C@H](CC(N)=O)NC(=O)[C@@H](Cc1cccnc1)NC(=O)[C@H](N)Cc1ccc(O)cc1)C(=O)NCC(N)=O (H-[dY][d3Pal]NSF[azaGly]L[Arg(Me)]G-NH2)
– | 20 | 23.7 | 34.5 | 64 | 26.1 | -4.08 | 74.6 | -0.744 | – | – | – | – | – | – | – | – | 27.6 | – | CO[C@H]1/C=C/O[C@@]2(C)Oc3c(C)c(O)c4c(O)c(c(/C=N/N5CCN(C)CC5)c(O)c4c3C2=O)NC(=O)/C(C)=C\C=C\[C@H](C)[C@H](O)[C@@H](C)[C@@H](O)[C@@H](C)[C@H](OC(C)=O)[C@@H]1C
1.34 | 9.26 | 13.5 | -5.57 | 98.5 | 13.7 | -3.17 | 57.7 | -1.51 | – | – | – | – | – | – | – | – | – | – | CCCCCNC(=O)N1CCC(CN(Cc2ccc(Cl)cc2)Cc2ccc([N+](=O)[O-])s2)C1 (stereo not drawn)
17.9 | 3.87 | -9.97 | -1.51 | 4.22 | -5.21 | 10.1 | -7.62 | – | – | – | – | – | – | – | – | – | – | 50.6 | COc1cc2nc(N3CCN(C(=O)COc4c(OC)cccc4C(C)C)CC3)nc(N)c2cc1OC
